In PMC9613470, “Diverse MarR bacterial regulators of auxin catabolism in the plant microbiome” (Nature Microbiology, 2022):
Read-outs that look alike come from different tables or passages of the source.

Experiments:
MarR_73 S28A H32A R46A = experiment: ITC IAA binding to MarR_73 S28A H32A R46A mutant; set-up: species or system Variovorax paradoxus CL14; conditions: 25 °C
Protocol: The coding sequence for each gene can be found in Supplementary Table 10. MarR expression plasmids were synthesized as codon-optimized genes for E. coli expression by BioBasic in the pLIC-His N-term vector (pMCSG7) and transformed into E. coli BL21 (DE3) Gold cells for expression. […] At an OD600 of 0.8, protein expression was induced by the addition of 0.1 mM IPTG and incubation continued overnight. Cells were collected by centrifugation at 4,500 × g for 20 min at 4 °C in a Sorvall (model RC-3B) swinging bucket centrifuge. Cell pellets were resuspended in buffer A (20 mM potassium phosphate, pH 7.4, 50 mM imidazole, 500 mM NaCl), DNase, lysozyme and a Roche Complete EDTA-free protease inhibitor tablet. Resuspended cells were sonicated and clarified via centrifugation at 17,000 × g for 60 min in a Sorvall (model RC-5B) swinging bucket centrifuge. The lysate was applied to a nickel-nitrilotriacetic acid HP column (GE Healthcare) on an Aktaxpress Fast Performance Liquid Chromatography (FPLC) system (Amersham Bioscience) and washed with buffer A. Protein was eluted with buffer B (20 mM potassium phosphate, pH 7.4, 500 mM imidazole, 500 mM NaCl). Fractions containing the protein of interest were combined and passed over a HiLoadTM 16/60 SuperdexTM 200 gel filtration column. Proteins were eluted in S200 buffer (20 mM HEPES, pH 7.4, 300 mM NaCl). […]

IAA degradation locus = experiment: RNA-seq of V. paradoxus CL14 strains with and without IAA; format: cell-based, Variovorax paradoxus CL14; conditions: Fig 2 f; for CL14wt_IAA (RNA-seq expression value): CL14 wild type with IAA; for d50_IAA (RNA-seq expression value): ΔMarR_50 with IAA; for d73_IAA (RNA-seq expression value): ΔMarR_73 with IAA; for diadDE_IAA (RNA-seq expression value): ΔiadDE with IAA
Protocol: V. paradoxus CL14 was grown in 5 ml cultures of M9 minimal medium supplemented with 15 mM succinate and 0.5% (v/v) ethanol alone or containing IAA. IAA was at a final concentration of 0.1 mg ml^−1 in the medium to which it was added. Cultures were prepared at a starting OD600 of 0.02 and incubated at 28 °C, shaking at 250 r.p.m. Cells from all samples were collected for RNA-seq at 18 h to ensure IAA was still present in the cultures of strains that degraded IAA most rapidly. Cells were pelleted by centrifuging the culture at 4,200 × g for 15 min and removing the supernatant. Cell pellets were frozen at −80 °C before RNA extraction. To extract RNA, cells were lysed in TRIzol reagent (Invitrogen) according to manufacturer instructions for lysis and phase separation. After these steps, RNA was purified from the aqueous phase using the RNeasy mini kit (Qiagen) including the optional on-column DNase digestion with RNase-free DNase set (Qiagen). Total RNA was quantified using the Qubit 2.0 fluorometer (Invitrogen) and RNA-seq libraries were prepared using the Universal Prokaryotic RNA-Seq Prokaryotic AnyDeplete kit (Tecan) according to manufacturer instructions. The resulting libraries were pooled and sequenced on the Illumina HiSeq4000 to generate 50 bp single-end reads.
The V. paradoxus CL14 RNA-seq sequence data were analysed as described previously. Briefly, the raw reads were mapped to the V. paradoxus CL14 genome (fasta file available at https://github.com/isaisg/variovoraxRGI/blob/master/rawdata/2643221508.fna) using bowtie2[53] with the ‘very sensitive’ flag. Hits to each individual coding sequence were counted and annotated using the function featureCounts from the R package Rsubread[54], inputting the V. paradoxus CL14 gff file (available at https://github.com/isaisg/variovoraxRGI/blob/master/rawdata/2643221508.gff) and using the default parameters with the flag allowMultiOverlap = FALSE. Finally, DESeq2[55] was used to estimate Differentially Expressed Genes (DEGs) between treatments, with the corresponding fold-change estimates and False Discovery Rate (FDR) adjusted P values. For visualization purposes, we performed z-score standardization of each gene across samples and we visualized this standardized expression values utilizing a heat map constructed using ggplot2[56].

[1] = biological target: Ruegaria pomeroyi MarR_3CDH (Ruegeria pomeroyi, UniProt Q5LTG1); experiment: ITC IAA binding to MarR_3CDH; conditions: 25 °C, IadR (MarR_73-like)
Protocol: The coding sequence for each gene can be found in Supplementary Table 10. MarR expression plasmids were synthesized as codon-optimized genes for E. coli expression by BioBasic in the pLIC-His N-term vector (pMCSG7) and transformed into E. coli BL21 (DE3) Gold cells for expression. […] At an OD600 of 0.8, protein expression was induced by the addition of 0.1 mM IPTG and incubation continued overnight. Cells were collected by centrifugation at 4,500 × g for 20 min at 4 °C in a Sorvall (model RC-3B) swinging bucket centrifuge. Cell pellets were resuspended in buffer A (20 mM potassium phosphate, pH 7.4, 50 mM imidazole, 500 mM NaCl), DNase, lysozyme and a Roche Complete EDTA-free protease inhibitor tablet. Resuspended cells were sonicated and clarified via centrifugation at 17,000 × g for 60 min in a Sorvall (model RC-5B) swinging bucket centrifuge. The lysate was applied to a nickel-nitrilotriacetic acid HP column (GE Healthcare) on an Aktaxpress Fast Performance Liquid Chromatography (FPLC) system (Amersham Bioscience) and washed with buffer A. Protein was eluted with buffer B (20 mM potassium phosphate, pH 7.4, 500 mM imidazole, 500 mM NaCl). Fractions containing the protein of interest were combined and passed over a HiLoadTM 16/60 SuperdexTM 200 gel filtration column. Proteins were eluted in S200 buffer (20 mM HEPES, pH 7.4, 300 mM NaCl). Fractions were combined and concentrated for long-term storage at −80 °C.
All ITC measurements were performed at 25 °C using an Auto-ITC200 microcalorimeter (MicroCal/GE Healthcare). The buffer employed was 20 mM HEPES, pH 7.4, 50 mM NaCl and 0.5% dimethly sulfoxide (DMSO) for protein/ligand binding and 20 mM HEPES, pH 7.4 and 300 mM NaCl for DNA/protein binding experiments. For ligand binding experiments, the calorimetry cell (volume […]) was loaded with MarR wild-type, mutant or homologue protein at a concentration of 50 μM. The syringe was loaded with a ligand concentration of 0.5 or 2 mM. […] A typical injection protocol included a single 0.2 μl first injection followed by 20 1.5 μl injections of the syringe sample into the calorimetry cell. The spacing between injections was kept at 180 s and the reference power at 8 μcal s^−1. […] Two independent ITC measurements were performed for each condition.

Chain of Ruegaria pomeroyi MarR_3CDH (Q5LTG1 entry or part of it): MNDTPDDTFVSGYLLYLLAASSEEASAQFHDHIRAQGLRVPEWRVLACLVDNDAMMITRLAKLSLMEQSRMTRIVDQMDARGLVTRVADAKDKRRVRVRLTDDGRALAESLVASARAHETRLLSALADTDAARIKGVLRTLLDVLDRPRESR

Q: For `O=C(O)Cc1c[nH]c2ccccc12` [IAA, indole-3-acetic acid], which KD (MarR_73 S28A H32A R46A) is on record?
A: No Binding

Q: What about the “CL14wt_IAA (RNA-seq expression value)” value (IAA degradation locus; Gene 2643611541) of the same compound?
A: -0.7473

Q: What about the “d50_IAA (RNA-seq expression value)” value (IAA degradation locus; Gene 2643611541) of the same compound?
A: 0.6042

Q: And the “d73_IAA (RNA-seq expression value)” value (IAA degradation locus; Gene 2643611541)?
A: 0.2688

Q: What about the “diadDE_IAA (RNA-seq expression value)” value (IAA degradation locus; Gene 2643611541) of the same compound?
A: 0.4986

Q: And the “CL14wt_IAA (RNA-seq expression value)” value (IAA degradation locus; Gene 2643611542)?
A: -0.07617

Q: What about the “d50_IAA (RNA-seq expression value)” value (IAA degradation locus; Gene 2643611542) of the same compound?
A: 0.09619

Q: What about the “d73_IAA (RNA-seq expression value)” value (IAA degradation locus; Gene 2643611542) of the same compound?
A: 0.02449

Q: And the “diadDE_IAA (RNA-seq expression value)” value (IAA degradation locus; Gene 2643611542)?
A: 0.1314

Q: What about the “CL14wt_IAA (RNA-seq expression value)” value (IAA degradation locus; Gene 2643611543) of the same compound?
A: -0.001618

Q: What about the “d50_IAA (RNA-seq expression value)” value (IAA degradation locus; Gene 2643611543) of the same compound?
A: 0.2002

Q: And the “d73_IAA (RNA-seq expression value)” value (IAA degradation locus; Gene 2643611543)?
A: 0.2405

Q: What about the “diadDE_IAA (RNA-seq expression value)” value (IAA degradation locus; Gene 2643611543) of the same compound?
A: 0.0895

Q: What about the “CL14wt_IAA (RNA-seq expression value)” value (IAA degradation locus; Gene 2643611544) of the same compound?
A: -1.408

Q: And the “d50_IAA (RNA-seq expression value)” value (IAA degradation locus; Gene 2643611544)?
A: -0.115

Q: And the “d73_IAA (RNA-seq expression value)” value (IAA degradation locus; Gene 2643611544)?
A: 0.2327

Q: What about the “diadDE_IAA (RNA-seq expression value)” value (IAA degradation locus; Gene 2643611544) of the same compound?
A: 0.2436

Q: And the “CL14wt_IAA (RNA-seq expression value)” value (IAA degradation locus; Gene 2643611545)?
A: -0.03496

Q: And the “d50_IAA (RNA-seq expression value)” value (IAA degradation locus; Gene 2643611545)?
A: 0.09136

Q: What about the “d73_IAA (RNA-seq expression value)” value (IAA degradation locus; Gene 2643611545) of the same compound?
A: -0.02991

Q: And the “diadDE_IAA (RNA-seq expression value)” value (IAA degradation locus; Gene 2643611545)?
A: 0.001153

Q: And the N1 ([1]; first site)?
A: 0.411 ± 0.012

Q: What about the Kd ([1]; first site, read-out: KD1) of the same compound?
A: 0.237 ± 0.099 µM

Q: And the N2 ([1]; second site)?
A: 0.216 ± 0.011

Q: What about the Kd ([1]; second site, read-out: KD2) of the same compound?
A: 0.006 µM
